Assay results taken from article PMC3095212 (Journal of immunology (Baltimore, Md. : 1950), 2011).
Residues, ends and D or L forms follow the SMILES beside them.

Legend:
CD8-negative 2C T cells = assay: T cell stimulation/antagonism, secreted IL-2; format: cell-based, mouse; details: 24 h
[1] = system: CD8-negative m33 Y48βA T cells; assay: T cell stimulation/antagonism, secreted IL-2; format: cell-based, mouse; details: 24 h
CD8-negative m33 T cells = details: 24 h
K^b = details: ref [28]; cited from earlier work

For `CC(C)C[C@H](NC(=O)[C@H](CC(=O)O)NC(=O)[C@H](Cc1ccccc1)NC(=O)[C@@H]1CCCN1C(=O)[C@H](CCCNC(=N)N)NC(=O)[C@@H]1CCCN1C(=O)[C@H](CO)NC(=O)[C@H](CC(C)C)NC(=O)[C@@H](N)CCC(N)=O)C(=O)O` [QL9 F5R] (H-QLSPRPFDL-OH), the IC50 (CD8-negative 2C T cells) was 0.44 ± 0.27 nM and the IC50 [1] was 4.7 ± 0.4 nM.

Compound `CC[C@H](C)[C@H](NC(=O)[C@@H](N)CO)C(=O)N[C@@H](Cc1ccc(O)cc1)C(=O)N[C@@H](C)C(=O)N[C@@H](Cc1ccc(O)cc1)C(=O)N[C@@H](Cc1ccc(O)cc1)C(=O)NCC(=O)N[C@@H](CC(C)C)C(=O)O` [SIY R4A] (H-SIYAYYGL-OH) has an IC50 (CD8-negative m33 T cells) of 0.15 nM.

For SIINFEKL [OVA], the “half-life of OVA/K^b” value (K^b) is given as 23 h.
